Structures are written as SMILES.

The text below walks through data of the Kinase Knowledgebase extract (Sharma et al. 2016).

Holding throughout (assay): Enzyme Assay
The target in test [1] is PIK3CD (Human) (UniProt O00329).
Test [2] concerns the target PIK3CG (human) (UniProt P48736).
Test [3] deals with PIK3CA (human) (UniProt P42336).
PIK3CA (human), sequence (P42336 whole entry, looked up): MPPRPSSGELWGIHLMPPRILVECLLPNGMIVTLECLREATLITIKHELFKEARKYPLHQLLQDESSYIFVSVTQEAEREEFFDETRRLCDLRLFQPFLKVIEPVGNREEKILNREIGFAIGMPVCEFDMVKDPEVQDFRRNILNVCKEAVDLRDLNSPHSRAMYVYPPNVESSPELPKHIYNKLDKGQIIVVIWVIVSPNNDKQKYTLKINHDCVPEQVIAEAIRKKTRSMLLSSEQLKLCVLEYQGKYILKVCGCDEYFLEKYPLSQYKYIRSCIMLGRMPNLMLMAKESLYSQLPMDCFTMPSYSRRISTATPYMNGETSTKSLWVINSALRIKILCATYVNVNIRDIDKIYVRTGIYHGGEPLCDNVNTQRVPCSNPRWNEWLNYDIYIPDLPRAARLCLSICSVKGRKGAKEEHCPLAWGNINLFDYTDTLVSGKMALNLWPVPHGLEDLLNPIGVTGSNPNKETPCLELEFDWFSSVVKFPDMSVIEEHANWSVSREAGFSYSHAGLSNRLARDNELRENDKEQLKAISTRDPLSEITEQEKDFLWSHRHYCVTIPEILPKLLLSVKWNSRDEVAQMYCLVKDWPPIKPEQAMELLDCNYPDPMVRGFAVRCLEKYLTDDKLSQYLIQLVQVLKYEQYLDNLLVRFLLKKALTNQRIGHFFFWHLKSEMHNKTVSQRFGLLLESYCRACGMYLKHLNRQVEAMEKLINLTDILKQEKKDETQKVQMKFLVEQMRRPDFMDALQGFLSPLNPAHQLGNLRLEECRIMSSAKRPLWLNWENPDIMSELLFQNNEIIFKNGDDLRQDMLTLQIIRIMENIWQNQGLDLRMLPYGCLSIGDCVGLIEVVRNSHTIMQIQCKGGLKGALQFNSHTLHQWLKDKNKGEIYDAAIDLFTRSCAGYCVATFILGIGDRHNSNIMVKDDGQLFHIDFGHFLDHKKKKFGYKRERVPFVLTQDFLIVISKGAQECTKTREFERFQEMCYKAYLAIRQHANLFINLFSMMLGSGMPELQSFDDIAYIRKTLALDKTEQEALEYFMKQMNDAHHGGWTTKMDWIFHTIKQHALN

PIK3CD (Human), sequence (O00329 whole entry, looked up): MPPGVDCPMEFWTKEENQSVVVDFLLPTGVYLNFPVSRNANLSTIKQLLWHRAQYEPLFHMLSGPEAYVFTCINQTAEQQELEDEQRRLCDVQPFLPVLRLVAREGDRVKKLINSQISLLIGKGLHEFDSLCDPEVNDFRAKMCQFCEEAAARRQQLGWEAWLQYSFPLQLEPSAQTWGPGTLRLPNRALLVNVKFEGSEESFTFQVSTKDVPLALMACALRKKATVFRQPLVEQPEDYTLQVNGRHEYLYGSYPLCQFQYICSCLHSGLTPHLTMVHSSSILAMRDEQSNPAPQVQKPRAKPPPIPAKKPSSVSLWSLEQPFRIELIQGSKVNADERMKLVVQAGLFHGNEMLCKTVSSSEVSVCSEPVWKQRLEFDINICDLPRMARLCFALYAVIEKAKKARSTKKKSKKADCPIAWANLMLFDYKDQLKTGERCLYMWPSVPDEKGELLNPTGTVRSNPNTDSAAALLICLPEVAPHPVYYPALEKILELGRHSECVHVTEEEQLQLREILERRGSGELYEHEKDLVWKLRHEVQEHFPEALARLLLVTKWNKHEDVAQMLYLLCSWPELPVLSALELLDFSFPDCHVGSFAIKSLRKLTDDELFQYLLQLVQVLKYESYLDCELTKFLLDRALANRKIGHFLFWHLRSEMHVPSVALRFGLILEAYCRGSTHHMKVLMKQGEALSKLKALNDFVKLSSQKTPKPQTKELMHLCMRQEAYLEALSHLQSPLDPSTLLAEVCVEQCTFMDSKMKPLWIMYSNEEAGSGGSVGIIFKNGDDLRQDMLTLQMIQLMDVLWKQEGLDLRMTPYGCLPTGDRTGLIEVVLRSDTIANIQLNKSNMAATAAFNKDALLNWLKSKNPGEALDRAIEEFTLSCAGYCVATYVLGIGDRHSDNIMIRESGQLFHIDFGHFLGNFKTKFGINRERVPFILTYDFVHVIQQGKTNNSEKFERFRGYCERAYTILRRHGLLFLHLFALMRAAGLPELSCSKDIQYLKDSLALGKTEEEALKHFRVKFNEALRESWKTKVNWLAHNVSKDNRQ
PIK3CG (human), sequence (P48736 whole entry, looked up): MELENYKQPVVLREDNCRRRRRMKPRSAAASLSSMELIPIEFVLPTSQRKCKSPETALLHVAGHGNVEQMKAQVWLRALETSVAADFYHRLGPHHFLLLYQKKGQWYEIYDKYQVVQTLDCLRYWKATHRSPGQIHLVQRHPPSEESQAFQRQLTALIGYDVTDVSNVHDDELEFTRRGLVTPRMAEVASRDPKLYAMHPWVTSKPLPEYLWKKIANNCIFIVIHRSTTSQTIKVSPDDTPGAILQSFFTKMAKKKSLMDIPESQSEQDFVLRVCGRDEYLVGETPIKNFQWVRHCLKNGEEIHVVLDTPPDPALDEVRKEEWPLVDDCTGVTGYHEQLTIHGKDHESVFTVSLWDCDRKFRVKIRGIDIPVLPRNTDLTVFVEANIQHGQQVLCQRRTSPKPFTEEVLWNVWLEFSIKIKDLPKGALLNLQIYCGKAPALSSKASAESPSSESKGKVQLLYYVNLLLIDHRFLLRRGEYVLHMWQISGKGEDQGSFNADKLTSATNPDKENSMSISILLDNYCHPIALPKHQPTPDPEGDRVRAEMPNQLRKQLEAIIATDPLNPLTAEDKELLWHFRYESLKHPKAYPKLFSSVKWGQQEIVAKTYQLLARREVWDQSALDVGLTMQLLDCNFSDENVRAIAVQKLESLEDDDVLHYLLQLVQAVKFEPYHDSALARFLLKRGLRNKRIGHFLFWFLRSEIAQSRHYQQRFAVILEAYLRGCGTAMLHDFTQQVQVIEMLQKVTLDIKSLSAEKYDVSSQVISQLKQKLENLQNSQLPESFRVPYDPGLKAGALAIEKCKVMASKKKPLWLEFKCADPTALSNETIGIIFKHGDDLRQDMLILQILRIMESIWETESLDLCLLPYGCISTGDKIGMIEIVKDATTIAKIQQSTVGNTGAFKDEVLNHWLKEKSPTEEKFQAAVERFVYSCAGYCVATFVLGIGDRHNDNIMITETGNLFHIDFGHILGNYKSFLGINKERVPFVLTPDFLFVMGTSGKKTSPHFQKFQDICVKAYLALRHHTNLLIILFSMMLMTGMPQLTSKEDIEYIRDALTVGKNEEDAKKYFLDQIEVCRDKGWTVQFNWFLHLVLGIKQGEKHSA

As a reminder, the IC50 is the concentration needed to halve the response being measured. Low values mean higher potency, high ones lower potency. For `CCn1cc(-c2cccc3cc([C@H](C)Nc4ncnc5scnc45)n(-c4ccccc4)c(=O)c23)cn1`, the half-inhibitory concentration (IC50) in test [1] and in test [2] was below 100 nM throughout.

In the case of `C[C@H](Nc1ncnc2scnc12)c1cc2cccc(-c3cnc(N)nc3)c2c(=O)n1-c1ccccc1`, the IC50 is 100 to 1000 nM in test [3], below 100 nM in test [1] and below 100 nM in test [2].

Take `COc1ncc(-c2cccc3cc([C@H](C)Nc4ncnc5scnc45)n(-c4ccccc4)c(=O)c23)cc1C`: the concentration for half-maximal inhibition (IC50) in test [1] and in test [2] was below 100 nM each time.

As to `COc1ccc(-c2cccc3cc([C@H](C)Nc4ncnc5scnc45)n(-c4ccccc4)c(=O)c23)cc1`, the concentration for half-maximal inhibition (IC50) in test [1] and in test [2] was below 100 nM throughout.

In the case of `COc1ccc(-c2cccc3cc([C@H](C)Nc4ncnc5scnc45)n(-c4ccccc4)c(=O)c23)cn1`, the 50% inhibitory concentration (IC50) in test [1] and in test [2] was below 100 nM in each case.

With `C[C@H](Nc1ncnc2scnc12)c1cc2cccc(-c3ccc(=O)n(C)c3)c2c(=O)n1-c1ccccc1`, the results for the IC50 in test [3], in test [1] and in test [2] were 100 to 1000 nM, below 100 nM and 100 to 1000 nM, respectively.

As to `COc1ncc(-c2cccc3cc([C@H](C)Nc4ncnc5scnc45)n(-c4ccccc4)c(=O)c23)s1`, the IC50 in test [3] was 100 to 1000 nM; in test [1] it was below 100 nM; in test [2], below 100 nM.

Take `CCCn1cc(-c2cccc3cc([C@H](C)Nc4ncnc5scnc45)n(-c4ccccc4)c(=O)c23)cn1`: the results for the half-inhibitory concentration (IC50) in test [1] and in test [2] were below 100 nM and 100 to 1000 nM, respectively.

With `COc1cc(-c2cccc3cc([C@H](C)Nc4ncnc5scnc45)n(-c4ccccc4)c(=O)c23)ccn1`, the 50% inhibitory concentration (IC50) in test [3] is 100 to 1000 nM; in test [1] it was below 100 nM; in test [2], below 100 nM.

As for `C[C@H](Nc1ncnc2scnc12)c1cc2cccc(-c3cn[nH]c3)c2c(=O)n1-c1ccccc1`, the half-inhibitory concentration (IC50) in test [1] and in test [2] was below 100 nM throughout.

On to `C[C@H](Nc1ncnc2scnc12)c1cc2cccc(-c3cnc(OCc4ccccc4)nc3)c2c(=O)n1-c1ccccc1`, for which the half-maximal inhibitory concentration (IC50) in test [1] was below 100 nM; in test [2], 100 to 1000 nM.

In the case of `Cc1cc(-c2cccc3cc([C@H](C)Nc4ncnc5scnc45)n(-c4ccccc4)c(=O)c23)cnc1F`, the IC50 in test [1] and in test [2] was below 100 nM each time.

On to `C[C@H](Nc1ncnc2scnc12)c1cc2cccc(-c3ccc(N)nc3)c2c(=O)n1-c1ccccc1`, for which the IC50 in test [3] is 100 to 1000 nM; in test [1], below 100 nM; in test [2] it was below 100 nM.

On to `Cc1cc(-c2cccc3cc([C@H](C)Nc4ncnc5scnc45)n(-c4ccccc4)c(=O)c23)ccn1`, for which the IC50 in test [3] is 100 to 1000 nM; in test [1], below 100 nM; in test [2], below 100 nM.

Turning to `Cc1c(-c2cccc3cc([C@H](C)Nc4ncnc5scnc45)n(-c4ccccc4)c(=O)c23)cnn1C`, the results for the IC50 in test [1] and in test [2] were below 100 nM and 100 to 1000 nM, respectively.

Turning to `COc1cnccc1-c1cccc2cc([C@H](C)Nc3ncnc4scnc34)n(-c3ccccc3)c(=O)c12`, the IC50 in test [1] and in test [2] was 100 to 1000 nM in each case.

Turning to `C[C@H](Nc1ncnc2scnc12)c1cc2ccccc2c(=O)n1-c1ccccc1`, the IC50 in test [1] and in test [2] was below 100 nM each time.

`C[C@H](Nc1ncnc2scnc12)c1cc2cccc(-c3cnc4ccoc4c3)c2c(=O)n1-c1ccccc1`: the values for the concentration for half-maximal inhibition (IC50) in test [3], in test [1] and in test [2] were 100 to 1000 nM, below 100 nM and below 100 nM, respectively.

Consider `C[C@H](Nc1ncnc2scnc12)c1cc2cccc(-c3cnn(C)c3)c2c(=O)n1-c1cccc(F)c1`, for which the IC50 in test [1] and in test [2] was below 100 nM each time.

Regarding `C[C@H](Nc1ncnc2scnc12)c1cc2cccc(-c3ccnc(C(F)(F)F)c3)c2c(=O)n1-c1ccccc1`, the half-maximal inhibitory concentration (IC50) in test [1] was below 100 nM; in test [2] it was 100 to 1000 nM.

`Cc1ncc(-c2cccc3cc([C@H](C)Nc4ncnc5scnc45)n(C4CC4)c(=O)c23)cn1`: the IC50 in test [1] was below 100 nM; in test [2] it was 100 to 1000 nM.

Take `C[C@H](Nc1ncnc2scnc12)c1cc2cccc(-c3ccncc3)c2c(=O)n1-c1ccccc1`: the IC50 is 100 to 1000 nM in test [3], below 100 nM in test [1] and below 100 nM in test [2].

Take `CCCCc1cccc2cc([C@H](C)Nc3ncnc4scnc34)n(-c3ccccc3)c(=O)c12`: the IC50 in test [1] and in test [2] was below 100 nM throughout.

With `Cc1ccc(-c2cccc3cc([C@H](C)Nc4ncnc5scnc45)n(-c4ccccc4)c(=O)c23)cn1`, the 50% inhibitory concentration (IC50) in test [1] and in test [2] was below 100 nM throughout.

On to `C[C@H](Nc1ncnc2scnc12)c1cc2cccc(-c3cccnc3)c2c(=O)n1-c1ccccc1`, for which the half-maximal inhibitory concentration (IC50) in test [1] and in test [2] was below 100 nM in each case.

In the case of `Cc1ccnc2cc(C(C)Nc3ncnc4scnc34)n(-c3ccccc3)c(=O)c12` (configuration not stated), the IC50 in test [3] is above 10000 nM; in test [1] it was below 100 nM; in test [2], below 100 nM.

As for `C[C@H](Nc1ncnc2scnc12)c1cc2cccc(-c3ccoc3)c2c(=O)n1-c1ccccc1`, the IC50 is 100 to 1000 nM in test [3], below 100 nM in test [1] and below 100 nM in test [2].

`COc1ccccc1-c1cccc2cc([C@H](C)Nc3ncnc4scnc34)n(-c3ccccc3)c(=O)c12`: the figures for the IC50 in test [1] and in test [2] were below 100 nM and 100 to 1000 nM, respectively.

Turning to `C[C@H](Nc1ncnc2scnc12)c1cc2cccc(/C=C/c3ccccc3)c2c(=O)n1-c1ccccc1`, the concentration for half-maximal inhibition (IC50) in test [1] was 100 to 1000 nM; in test [2], below 100 nM.

On to `Cc1cc(-c2cccc3cc([C@H](C)Nc4ncnc5scnc45)n(-c4ccccc4)c(=O)c23)cnc1C`, for which the IC50 in test [1] and in test [2] was below 100 nM in each case.

In the case of `C[C@H](Nc1nc(Cl)nc2scnc12)c1cc2cccc(-c3cnn(C)c3)c2c(=O)n1-c1ccccc1`, the IC50 was below 100 nM in test [1] and 100 to 1000 nM in test [2].

As for `COc1ncc(-c2cccc3cc([C@H](C)Nc4ncnc5scnc45)n(C4CC4)c(=O)c23)cn1`, the IC50 in test [1] is below 100 nM; in test [2] it was 100 to 1000 nM.

Regarding `C[C@H](Nc1ncnc2scnc12)c1cc2cccc(-c3cncnc3)c2c(=O)n1-c1ccccc1`, the 50% inhibitory concentration (IC50) in test [1] and in test [2] was below 100 nM throughout.

Consider `C[C@H](Nc1ncnc2scnc12)c1cc2cccc(-c3cnc4c(c3)CCCO4)c2c(=O)n1-c1ccccc1`, for which the half-maximal inhibitory concentration (IC50) is 100 to 1000 nM in test [3], below 100 nM in test [1] and below 100 nM in test [2].

As to `COc1cccc(-c2cccc3cc([C@H](C)Nc4ncnc5scnc45)n(-c4ccccc4)c(=O)c23)c1`, the half-inhibitory concentration (IC50) in test [3] was 100 to 1000 nM; in test [1], below 100 nM; in test [2], below 100 nM.

Consider `C[C@H](Nc1ncnc2scnc12)c1cc2cccc(Cl)c2c(=O)n1-c1cccc(C(F)(F)F)c1`, for which the half-inhibitory concentration (IC50) in test [3] is above 10000 nM; in test [1], 100 to 1000 nM; in test [2], 100 to 1000 nM.

As for `Cc1nsc2cc(C(C)Nc3ncnc4scnc34)n(-c3ccccc3)c(=O)c12` (configuration not stated), the concentration for half-maximal inhibition (IC50) in test [3] is above 10000 nM; in test [1], below 100 nM.

Regarding `COc1ncc(-c2cccc3cc([C@H](C)Nc4ncnc5scnc45)n(-c4ccccc4)c(=O)c23)cc1C(F)(F)F`, the IC50 in test [1] and in test [2] was below 100 nM each time.

Regarding `C[C@H](Nc1ccnc2scnc12)c1cc2cccc(-c3cnn(C)c3)c2c(=O)n1-c1ccccc1`, the IC50 in test [1] and in test [2] was below 100 nM each time.

Regarding `C[C@H](Nc1ncnc2scnc12)c1cc2cccc(-c3cnn(C)c3)c2c(=O)n1C`, the half-inhibitory concentration (IC50) in test [1] lay within 100 to 1000 nM.
